From ChEMBL document CHEMBL4033663, “Design, combinatorial synthesis and biological evaluations of novel 3-amino-1'-((1-aryl-1H-1,2,3-triazol-5-yl)methyl)-2'-oxospiro[benzo[a] pyrano[2,3-c]phenazine-1,3'-indoline]-2-carbonitrile antitumor hybrid molecules” (Eur J Med Chem, 2017) come the findings set out here.

Some results are limits rather than exact numbers.

The first experiment concerns HUVEC. Put plainly: Antiproliferative activity against human HUVEC cells after 48 hrs by MTT assay. The class given is cell-based.
Details: not given
A general note: Tetrazolium assays rely on reduction of a dye to a coloured formazan, in cell work by metabolically active cells.
`Cc1cc(C)c(-n2nncc2CN2C(=O)C3(C(C#N)=C(N)Oc4c(N)cc5nc6ccccc6nc5c43)c3ccccc32)c(C)c1` (configuration not stated): the IC50 (commonly the concentration needed to halve the response being measured) is above 50 µM.

Molecule `N#CC1=C(N)Oc2c(N)cc3nc4ccccc4nc3c2C12C(=O)N(Cc1cnnn1-c1ccc(Cl)cc1Cl)c1ccccc12` (configuration not stated) yielded an IC50 above 50 µM.

Consider `N#CC1=C(N)Oc2c(N)cc3nc4ccccc4nc3c2C12C(=O)N(Cc1cnnn1-c1ccccc1Br)c1ccccc12` (configuration not stated), for which 34.2 µM corresponded to half-maximal inhibition (IC50).

In turn, `COc1ccccc1-n1nncc1CN1C(=O)C2(C(C#N)=C(N)Oc3c(N)cc4nc5ccccc5nc4c32)c2ccccc21` (configuration not stated) displayed an IC50 above 50 µM.

Consider `N#CC1=C(N)Oc2c(c3nc4ccccc4nc3c3ccccc23)C12C(=O)N(Cc1cnnn1-c1ccccc1Cl)c1ccccc12` (configuration not stated), for which the IC50 was above 50 µM.

Molecule `N#CC1=C(N)Oc2c(N)cc3nc4ccccc4nc3c2C12C(=O)N(Cc1cnnn1-c1ccc(F)c(Cl)c1)c1ccccc12` (configuration not stated) had an IC50 above 50 µM.

Regarding `Cc1ccc(-n2nncc2CN2C(=O)C3(C(C#N)=C(N)Oc4c3c3nc5ccccc5nc3c3ccccc43)c3ccccc32)c(C)c1` (configuration not stated), the half-inhibitory concentration (IC50) is above 50 µM.

In another experiment the test system is A549. Put plainly: Antiproliferative activity against human A549 cells after 48 hrs by MTT assay. Type of experiment: functional, cell-based. The settings on record: A549, 48 h.
Regarding `Cc1cc(C)c(-n2nncc2CN2C(=O)C3(C(C#N)=C(N)Oc4c(N)cc5nc6ccccc6nc5c43)c3ccccc32)c(C)c1` (configuration not stated), half-maximal inhibition (IC50) was put at 12.7 µM.

The molecule `N#CC1=C(N)Oc2c(N)cc3nc4ccccc4nc3c2C12C(=O)N(Cc1cnnn1-c1ccc(Cl)cc1Cl)c1ccccc12` (configuration not stated) gave an IC50 above 50 µM.

Regarding `N#CC1=C(N)Oc2c(N)cc3nc4ccccc4nc3c2C12C(=O)N(Cc1cnnn1-c1ccccc1Br)c1ccccc12` (configuration not stated), the concentration for half-maximal inhibition (IC50) was found to be 27.4 µM. That is a double-digit micromolar value.

On to `COc1ccccc1-n1nncc1CN1C(=O)C2(C(C#N)=C(N)Oc3c(N)cc4nc5ccccc5nc4c32)c2ccccc21` (configuration not stated), for which half-maximal inhibition (IC50) required 37.5 µM.

For the molecule `N#CC1=C(N)Oc2c(c3nc4ccccc4nc3c3ccccc23)C12C(=O)N(Cc1cnnn1-c1ccccc1Cl)c1ccccc12` (configuration not stated), the IC50 came out at 42.6 µM.

`N#CC1=C(N)Oc2c(N)cc3nc4ccccc4nc3c2C12C(=O)N(Cc1cnnn1-c1ccc(F)c(Cl)c1)c1ccccc12` (configuration not stated) returned an IC50 of 43.4 µM. The IC50 values of the last two molecules are within 1.5-fold of each other.

The molecule `Cc1ccc(-n2nncc2CN2C(=O)C3(C(C#N)=C(N)Oc4c3c3nc5ccccc5nc3c3ccccc43)c3ccccc32)c(C)c1` (configuration not stated) displayed an IC50 above 50 µM.

The next experiment relates to MCF7. Put plainly: Antiproliferative activity against human MCF7 cells after 48 hrs by MTT assay. The class given is functional, cell-based. The settings on record: MCF7, 48 h.
Regarding `Cc1cc(C)c(-n2nncc2CN2C(=O)C3(C(C#N)=C(N)Oc4c(N)cc5nc6ccccc6nc5c43)c3ccccc32)c(C)c1` (configuration not stated), the IC50 is above 50 µM.

With `N#CC1=C(N)Oc2c(N)cc3nc4ccccc4nc3c2C12C(=O)N(Cc1cnnn1-c1ccc(Cl)cc1Cl)c1ccccc12` (configuration not stated), the IC50 was above 50 µM.

As for `N#CC1=C(N)Oc2c(N)cc3nc4ccccc4nc3c2C12C(=O)N(Cc1cnnn1-c1ccccc1Br)c1ccccc12` (configuration not stated), half-maximal inhibition (IC50) was put at 30.7 µM.

As to `COc1ccccc1-n1nncc1CN1C(=O)C2(C(C#N)=C(N)Oc3c(N)cc4nc5ccccc5nc4c32)c2ccccc21` (configuration not stated), the 50% inhibitory concentration (IC50) was determined as 28.9 µM.

Turning to `N#CC1=C(N)Oc2c(c3nc4ccccc4nc3c3ccccc23)C12C(=O)N(Cc1cnnn1-c1ccccc1Cl)c1ccccc12` (configuration not stated), the concentration for half-maximal inhibition (IC50) is above 50 µM.

In the case of `N#CC1=C(N)Oc2c(N)cc3nc4ccccc4nc3c2C12C(=O)N(Cc1cnnn1-c1ccc(F)c(Cl)c1)c1ccccc12` (configuration not stated), the half-maximal inhibitory concentration (IC50) was determined as 17.8 µM. In other words, the double-digit micromolar range.

Molecule `Cc1ccc(-n2nncc2CN2C(=O)C3(C(C#N)=C(N)Oc4c3c3nc5ccccc5nc3c3ccccc43)c3ccccc32)c(C)c1` (configuration not stated) returned a 50% inhibitory concentration (IC50) above 50 µM.

Another experiment has as its system HCT-116. Put plainly: Antiproliferative activity against human HCT116 cells after 48 hrs by MTT assay. Type of experiment: functional, cell-based. The settings on record: HCT-116, 48 h.
Take `Cc1cc(C)c(-n2nncc2CN2C(=O)C3(C(C#N)=C(N)Oc4c(N)cc5nc6ccccc6nc5c43)c3ccccc32)c(C)c1` (configuration not stated): the IC50 was above 50 µM.

Regarding `N#CC1=C(N)Oc2c(N)cc3nc4ccccc4nc3c2C12C(=O)N(Cc1cnnn1-c1ccc(Cl)cc1Cl)c1ccccc12` (configuration not stated), the IC50 is above 50 µM.

For the molecule `N#CC1=C(N)Oc2c(N)cc3nc4ccccc4nc3c2C12C(=O)N(Cc1cnnn1-c1ccccc1Br)c1ccccc12` (configuration not stated), the IC50 was determined as 12.4 µM. In other words, the double-digit micromolar range.

`COc1ccccc1-n1nncc1CN1C(=O)C2(C(C#N)=C(N)Oc3c(N)cc4nc5ccccc5nc4c32)c2ccccc21` (configuration not stated) had an IC50 above 50 µM.

In the case of `N#CC1=C(N)Oc2c(c3nc4ccccc4nc3c3ccccc23)C12C(=O)N(Cc1cnnn1-c1ccccc1Cl)c1ccccc12` (configuration not stated), the IC50 is above 50 µM.

With `N#CC1=C(N)Oc2c(N)cc3nc4ccccc4nc3c2C12C(=O)N(Cc1cnnn1-c1ccc(F)c(Cl)c1)c1ccccc12` (configuration not stated), the IC50 is above 50 µM.

As for `Cc1ccc(-n2nncc2CN2C(=O)C3(C(C#N)=C(N)Oc4c3c3nc5ccccc5nc3c3ccccc43)c3ccccc32)c(C)c1` (configuration not stated), the IC50 is above 50 µM.

For another experiment, the system named is L02. Kind of experiment: Antiproliferative activity against human L02 cells after 48 hrs by MTT assay. Type of experiment: cell-based. The settings on record: L02, 48 h.
`Cc1cc(C)c(-n2nncc2CN2C(=O)C3(C(C#N)=C(N)Oc4c(N)cc5nc6ccccc6nc5c43)c3ccccc32)c(C)c1` (configuration not stated) yielded an IC50 above 50 µM.

Consider `N#CC1=C(N)Oc2c(N)cc3nc4ccccc4nc3c2C12C(=O)N(Cc1cnnn1-c1ccc(Cl)cc1Cl)c1ccccc12` (configuration not stated), for which the IC50 was above 50 µM.

In turn, `N#CC1=C(N)Oc2c(N)cc3nc4ccccc4nc3c2C12C(=O)N(Cc1cnnn1-c1ccccc1Br)c1ccccc12` (configuration not stated) returned a half-maximal inhibitory concentration (IC50) of 29.2 µM. This counts as double-digit micromolar.

In the case of `COc1ccccc1-n1nncc1CN1C(=O)C2(C(C#N)=C(N)Oc3c(N)cc4nc5ccccc5nc4c32)c2ccccc21` (configuration not stated), the IC50 is above 50 µM.

`N#CC1=C(N)Oc2c(c3nc4ccccc4nc3c3ccccc23)C12C(=O)N(Cc1cnnn1-c1ccccc1Cl)c1ccccc12` (configuration not stated) registered an IC50 above 50 µM.

Turning to `N#CC1=C(N)Oc2c(N)cc3nc4ccccc4nc3c2C12C(=O)N(Cc1cnnn1-c1ccc(F)c(Cl)c1)c1ccccc12` (configuration not stated), the IC50 is above 50 µM.

`Cc1ccc(-n2nncc2CN2C(=O)C3(C(C#N)=C(N)Oc4c3c3nc5ccccc5nc3c3ccccc43)c3ccccc32)c(C)c1` (configuration not stated) registered a half-maximal inhibitory concentration (IC50) above 50 µM.

The subject of another experiment is HepG2. Put plainly: Antiproliferative activity against human HepG2 cells after 48 hrs by MTT assay. Type of experiment: functional, cell-based. To be noted: HepG2, 48 h.
Regarding `Cc1cc(C)c(-n2nncc2CN2C(=O)C3(C(C#N)=C(N)Oc4c(N)cc5nc6ccccc6nc5c43)c3ccccc32)c(C)c1` (configuration not stated), half-maximal inhibition (IC50) required 48.1 µM.

As to `N#CC1=C(N)Oc2c(N)cc3nc4ccccc4nc3c2C12C(=O)N(Cc1cnnn1-c1ccc(Cl)cc1Cl)c1ccccc12` (configuration not stated), the IC50 was above 50 µM.

In turn, `N#CC1=C(N)Oc2c(N)cc3nc4ccccc4nc3c2C12C(=O)N(Cc1cnnn1-c1ccccc1Br)c1ccccc12` (configuration not stated) returned an IC50 of 38 µM. This lies in the double-digit micromolar range.

With `COc1ccccc1-n1nncc1CN1C(=O)C2(C(C#N)=C(N)Oc3c(N)cc4nc5ccccc5nc4c32)c2ccccc21` (configuration not stated), the IC50 was above 50 µM.

The molecule `N#CC1=C(N)Oc2c(c3nc4ccccc4nc3c3ccccc23)C12C(=O)N(Cc1cnnn1-c1ccccc1Cl)c1ccccc12` (configuration not stated) displayed an IC50 above 50 µM.

For the molecule `N#CC1=C(N)Oc2c(N)cc3nc4ccccc4nc3c2C12C(=O)N(Cc1cnnn1-c1ccc(F)c(Cl)c1)c1ccccc12` (configuration not stated), the IC50 was above 50 µM.

On to `Cc1ccc(-n2nncc2CN2C(=O)C3(C(C#N)=C(N)Oc4c3c3nc5ccccc5nc3c3ccccc43)c3ccccc32)c(C)c1` (configuration not stated), for which the IC50 is above 50 µM.
